Assay results reported in paper PMC7677321, “Purification and biochemical characterization of Hel a 6, a cross-reactive pectate lyase allergen from Sunflower (Helianthus annuus L.) pollen” (Scientific Reports, 2020).

Target: T1, Hel a 6 (Helianthus annuus, UniProt A0A251RNJ1)
T1 construct: gene PLY2; natural protein purified from sunflower pollen
T1 sequence (A0A251RNJ1 23-394): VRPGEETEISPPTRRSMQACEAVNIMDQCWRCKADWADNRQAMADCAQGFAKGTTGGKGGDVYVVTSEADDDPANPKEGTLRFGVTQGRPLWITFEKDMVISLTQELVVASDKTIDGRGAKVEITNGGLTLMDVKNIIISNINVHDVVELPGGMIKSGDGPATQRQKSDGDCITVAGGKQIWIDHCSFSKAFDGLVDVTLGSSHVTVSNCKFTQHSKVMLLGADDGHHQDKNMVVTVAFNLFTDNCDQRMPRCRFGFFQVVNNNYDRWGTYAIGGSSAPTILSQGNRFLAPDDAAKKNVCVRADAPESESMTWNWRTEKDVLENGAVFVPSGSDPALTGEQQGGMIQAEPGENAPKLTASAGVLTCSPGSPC
Test: pectate lyase assay, A235 increase
Type: biochemical
Settings: 10 mM salicylic acid; 0.2% polygalacturonic acid, 0.2 mM CaCl2, 25 mM Tris-HCl pH 8.0, 37 °C (methods; results say 40 °C)

## O=C(O)c1ccccc1O [salicylic acid]
  pectate lyase assay, A235 increase: the enzyme activity was ceased entirely when salicylic acid was added to the reaction mix
